Patent US20230123334A1, “AMINO LIPID COMPOUND, PREPARATION METHOD THEREFOR, AND APPLICATION THEREOF” (SHENZHEN SHENXIN BIOTECHNOLOGY CO., LTD., priority 2020, published 2023)

Test system: HEK293 cells
Experiment: Preliminary screening as DNA vectors, GFP transfection of HEK293 cells
Type: cell-based
Details: amino lipid/DOPE liposome with 75 ng plasmid DNA (psin-EGFP-IRES-Puro); number of GFP-expressing cells divided by total nuclei (Hoechst)
Method in brief: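 Lipid + DOPE liposomes (NaOAc, pH 5.6) complexed w/ 75 ng psin-EGFP-IRES-Puro, 30 min RT; added to 3-5×10^4 HEK293/well, 37° C. Hoechst 0.2 μg/mL at 20-24 h, imaged after further 20-24 h. Efficiency = GFP+ cells / total nuclei.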

**Q.** Which “Absolute DNA transfection efficiency in HEK293 cells” value (“Absolute DNA transfection efficiency” for short) does the source give for `CCCCCCCCCCCCCCCCNc1nc(NCCN(C)C)nc(SCCCCCCCC)n1` [S8N16 D1] here?
**A.** Its value is 7.1%.

**Q.** How did the “Absolute DNA transfection efficiency” value turn out when `CCCCCCCCCCCCCCCCNc1nc(NCCN2CCOCC2)nc(SCCCCCCCC)n1` [S8N16 D2] was run?
**A.** Its value is 2.9%.

**Q.** `CCCCCCCCCCCCCCCCNc1nc(NCCN2CCCC2)nc(SCCCCCCCC)n1` [S8N16 D3] was tested. Which “Absolute DNA transfection efficiency” value did it give?
**A.** The value was 3.3%.

**Q.** Which “Absolute DNA transfection efficiency” value does the source give for `CCCCCCCCCCCCCCCCNc1nc(NCCN2CCCCC2)nc(SCCCCCCCC)n1` [S8N16 D4] here?
**A.** The value was 1.0%.

**Q.** `CCCCCCCCCCCCCCCCNc1nc(NCCN2CCN(C)CC2)nc(SCCCCCCCC)n1` [S8N16 D5] was tested. Which “Absolute DNA transfection efficiency” value did it give?
**A.** Its value is 14.3%.

**Q.** With `CCCCCCCCCCCCCCCCNc1nc(NCCCN(C)C)nc(SCCCCCCCC)n1` [S8N16 D6] as the molecule, how does the “Absolute DNA transfection efficiency” value read?
**A.** The value was 3.7%.

**Q.** `CCCCCCCCCCCCCCCCNc1nc(NCCN(CC)CC)nc(SCCCCCCCC)n1` [S8N16 D7] was tested. Which “Absolute DNA transfection efficiency” value did it give?
**A.** Its value is 5.2%.

**Q.** Which “Absolute DNA transfection efficiency” value does the source give for `CCCCCCCCCCCCCCCCNc1nc(NCCCN2CCOCC2)nc(SCCCCCCCC)n1` [S8N16 D8] here?
**A.** The value was 8.2%.

**Q.** For `CCCCCCCCCCCCCCCCNc1nc(NCCCN2CCN(C)CC2)nc(SCCCCCCCC)n1` [S8N16 D9], which “Absolute DNA transfection efficiency” value is on record?
**A.** Its value is 9.7%.

**Q.** For `CCCCCCCCCCCCCCCCNc1nc(NCC2CCN(C)CC2)nc(SCCCCCCCC)n1` [S8N16 D10], which “Absolute DNA transfection efficiency” value is on record?
**A.** Its value is 13.4%.

**Q.** Which “Absolute DNA transfection efficiency” value does the source give for `CCCCCCCCCCCCCCCCCCNc1nc(NCCN(C)C)nc(SCCCCCCCC)n1` [S8N18 D1] here?
**A.** The value was 4.8%.

**Q.** `CCCCCCCCCCCCCCCCCCNc1nc(NCCN2CCOCC2)nc(SCCCCCCCC)n1` [S8N18 D2] was tested. Which “Absolute DNA transfection efficiency” value did it give?
**A.** Its value is 2.6%.

**Q.** For `CCCCCCCCCCCCCCCCCCNc1nc(NCCN2CCCC2)nc(SCCCCCCCC)n1` [S8N18 D3], which “Absolute DNA transfection efficiency” value is on record?
**A.** The value was 6.7%.

**Q.** `CCCCCCCCCCCCCCCCCCNc1nc(NCCN2CCCCC2)nc(SCCCCCCCC)n1` [S8N18 D4] was tested. Which “Absolute DNA transfection efficiency” value did it give?
**A.** Its value is 0.9%.

**Q.** How did the “Absolute DNA transfection efficiency” value turn out when `CCCCCCCCCCCCCCCCCCNc1nc(NCCN2CCN(C)CC2)nc(SCCCCCCCC)n1` [S8N18 D5] was run?
**A.** Its value is 8.6%.

**Q.** For `CCCCCCCCCCCCCCCCCCNc1nc(NCCCN(C)C)nc(SCCCCCCCC)n1` [S8N18 D6], which “Absolute DNA transfection efficiency” value is on record?
**A.** The value was 20.6%.

**Q.** Which “Absolute DNA transfection efficiency” value does the source give for `CCCCCCCCCCCCCCCCCCNc1nc(NCCN(CC)CC)nc(SCCCCCCCC)n1` [S8N18 D7] here?
**A.** Its value is 4.1%.

**Q.** For `CCCCCCCCCCCCCCCCCCNc1nc(NCCCN2CCOCC2)nc(SCCCCCCCC)n1` [S8N18 D8], which “Absolute DNA transfection efficiency” value is on record?
**A.** The value was 5.1%.

**Q.** For `CCCCCCCCCCCCCCCCCCNc1nc(NCCCN2CCN(C)CC2)nc(SCCCCCCCC)n1` [S8N18 D9], which “Absolute DNA transfection efficiency” value is on record?
**A.** Its value is 5.3%.

**Q.** How did the “Absolute DNA transfection efficiency” value turn out when `CCCCCCCCCCCCCCCCCCNc1nc(NCC2CCN(C)CC2)nc(SCCCCCCCC)n1` [S8N18 D10] was run?
**A.** Its value is 9.6%.

**Q.** How did the “Absolute DNA transfection efficiency” value turn out when `CCCCCCCCSc1nc(NCCN(C)C)nc(SCCCCCCCC)n1` [S8S8 D1] was run?
**A.** The value was 17.9%.

**Q.** Which “Absolute DNA transfection efficiency” value does the source give for `CCCCCCCCSc1nc(NCCN2CCOCC2)nc(SCCCCCCCC)n1` [S8S8 D2] here?
**A.** The value was 17.6%.

**Q.** `CCCCCCCCSc1nc(NCCN2CCCC2)nc(SCCCCCCCC)n1` [S8S8 D3] was tested. Which “Absolute DNA transfection efficiency” value did it give?
**A.** The value was 10.4%.

**Q.** With `CCCCCCCCSc1nc(NCCN2CCCCC2)nc(SCCCCCCCC)n1` [S8S8 D4] as the molecule, how does the “Absolute DNA transfection efficiency” value read?
**A.** The value was 11.2%.

**Q.** With `CCCCCCCCSc1nc(NCCN2CCN(C)CC2)nc(SCCCCCCCC)n1` [S8S8 D5] as the molecule, how does the “Absolute DNA transfection efficiency” value read?
**A.** Its value is 10.2%.

**Q.** Which “Absolute DNA transfection efficiency” value does the source give for `CCCCCCCCSc1nc(NCCCN(C)C)nc(SCCCCCCCC)n1` [S8S8 D6] here?
**A.** Its value is 5.1%.

**Q.** Which “Absolute DNA transfection efficiency” value does the source give for `CCCCCCCCSc1nc(NCCN(CC)CC)nc(SCCCCCCCC)n1` [S8S8 D7] here?
**A.** The value was 10.1%.
